Test results published in publication PMC10495491 (Parasitology Research, 2023).

Columns and labels:
Vero cells = test: Cytotoxicity test (MTT) on Vero cells; assay type: cell-based, African green monkey; details: 24 h incubation
Method: (§1) Vero cells were seeded at a density of 1×10^4 cells/well in 96-well plate and incubated for 24 h at 37 °C in a 5% CO2 incubator. […] A stock solution in DMSO was initially prepared then diluted 100 times with culture media to obtain the highest concentration, then it was serially diluted. Three replicates for each drug concentration were performed. Cell viability was assayed by MTT method where 20 μl of 5 mg/ml MTT (Sigma, USA) was added to each well, and the plate was incubated at 37 °C for 3 h. Then, MTT solution was removed, 100 μl DMSO was added, and the absorbance of each well was measured using a Benchmark Microplate Reader (Bio Rad). […] [2021]; Montazeri et al. [2020]). Experiments were repeated three times. Vero cell growth suppression (%) was estimated using the following equation: […]×100 using CompuSyn software (version 1) (Chou [2006]; Chou and Talaly [1977]).

T. gondii tachyzoites = test: Effects of sulfa drugs on intracellular Toxoplasma gondii in Vero cells (MTT); assay type: cell-based, Toxoplasma gondii RH strain; details: 24 h treatment
Method: For this purpose, Vero cells were cultured in 96-well plates (1×10^4 cells/well) for 24 h in RPMI 1640 medium supplemented with 10% inactivated FBS at 37 °C and 5% CO2. Next, the cells were infected with T. gondii tachyzoites (parasite: cell ratio = 10:1). Four hours following the inoculation, the cells were washed twice with RPMI to remove any non-adherent parasites. […] Cell viability was assayed by MTT method. Twenty microliters of 5 mg/ml MTT (Sigma, USA) was added to each well and the plate was incubated at 37 °C for 3 h. Then, MTT solution was removed, 100 μl DMSO was added, and the absorbance of each well was measured using a Benchmark Microplate Reader (Bio Rad). The optical absorbance was measured at 570-nm wavelength. Growth inhibition (GI) was calculated as in the following equation: GI%=At-Ac/Ac×100
where At and Ac are the absorbance of treated cells and control, respectively. […] Selectivity index (SI) of the samples was calculated using the IC50 and the host-cell cytotoxicity profiles CC50 (SI = CC50/IC50) (Montazeri et al. [2020]) using CompuSyn software (version 1) (Chou [2006]; Chou and Talaly [1977]).

[1] = system: T. gondii RH strain tachyzoites; test: Transmission electron microscopy of intracellular tachyzoites in Vero cells; assay type: cell-based, Toxoplasma gondii RH strain; details: infected Vero cells treated with the IC50 of each compound for 24 h
Method: After confluence of Vero cells in four T-25 culture flasks, T. gondii RH strain tachyzoites, suspended in 5 ml of RPMI, and were added to each flasks in a ratio of 5:1 parasite-host cell (Diab and El-Bahy [2008]). Flasks were incubated for 2 h. After that, the cells were washed twice with culture media to remove extracellular parasites. The cells in culture flasks were incubated in 5 ml of culture media for 24 h at 37 °C in a 5% CO2 (Carvalho and De Melo [2010b]). […] For TEM (Jeol JSM-1400), trypsinization was followed by centrifugation at 2000g for 10 min, and the resulting pellet was fixed in buffered glutaraldehyde-phosphate 2.5% and stored at 4 °C until used (Shaw et al. [2002]). Then, the fixed specimens were washed thoroughly with Millonig phosphate buffer and post-fixed with buffered osmium tetroxide-phosphate. Following that, they were dehydrated in ascending concentrations of ethyl alcohol followed by embedding in epoxy resin. Finally, ultrathin sections were doubly stained with uranyl acetate and lead citrate trihydrate stains and examined under TEM (Winey et al. [2014]).

[2] = Cytotoxicity test (MTT) on Vero cells; assay type: cell-based, African green monkey; details: African green monkey, 24 h incubation
Method: as §1

tachyzoites = details: ref Portes et al. [2018]; cited from earlier work

| Compound | CC50 (Vero cells) | IC50 (T. gondii tachyzoites) | Ultrastructural alterations of intracellular tachyzoites (TEM) [1] | CC50 at 24 h [2] | Ultrastructural alterations in tachyzoites after treatment (tachyzoites) | IC50 (T. gondii tachyzoites; Toxoplasma gondii) |
| --- | --- | --- | --- | --- | --- | --- |
| 4-(4-(hydroxymethyl)-1H-1,2,3-triazol-1-yl)-N-(pyridin-2-yl)benzenesulfonamide [3e] | 0.51 ± 0.022 µM | 0.0533 ± 0.0105 µM | large PVs containing multiple vacuolated tachyzoites without nuclei or organelles | – | – | – |
| Nc1ccc(S(=O)(=O)Nc2ncccn2)cc1 [Sulfadiazine, sulfadiazine] | – | – | – | 1.39 ± 0.1 µM | no significant ultrastructural alterations | 0.185 ± 0.0184 µM |
